Test results taken from patent US9388208B2, “Pyrrolo[1,2-f][1,2,4]triazines useful for treating respiratory syncitial virus infections” (Gilead Sciences, Inc., priority 2013, dated 2016).
Where two headings read alike, the source gives them in different places.

Assays:
RSV strain A2 = assay: Anti-RSV activity, infectious cytopathic cell protection assay in HEp-2 cells; format: cell-based, Respiratory Syncytial Virus (RSV); conditions: human respiratory syncytial virus
Description: Antiviral activity against RSV is determined using an infectious cytopathic cell protection assay in HEp-2 cells. In this assay, compounds inhibiting viral infection and/or replication produce a cytoprotective effect against the virus-induced cell killing that can be quantified using a cell viability reagent. The techniques used here are novel adaptations of methods described in published literature (Chapman et al., Antimicrob Agents Chemother. 2007, 51(9):3346-53.)
HEp-2 cells are obtained from ATCC (Manassas, VI) and maintained in MEM media supplemented with 10% fetal bovine serum and penicillin/streptomycin. Cells are passaged twice a week and kept at subconfluent stage. Commercial stock of RSV strain A2 (Advanced Biotechnologies, Columbia, Md.) is titered before compound testing to determine the appropriate dilution of the virus stock that generates desirable cytopathic effect in HEp-2 cells.
For antiviral tests, HEp-2 cells are grown in large cell culture flasks to near confluency but not fully so. The compounds to be tested are prediluted in DMSO in 384-well compound dilution plates, either in an 8 or 40 sample per plate standardized dose response format. 3-fold serial dilution increments of each test compound are prepared in the plates and test samples are transferred via acoustic transfer apparatus (Echo, Labcyte) at 100 nl per well into cell culture assay 384-well plates. Each compound dilution is transferred in single or quadruplicate samples into dry assay plates, which are stored until assay is ready to go. The positive and negative controls are laid out in opposite on ends of the plate in vertical blocks (1 column).
Subsequently, an infectious mixture is prepared using an appropriate dilution of virus stock previously determined by titration with cells at a density of 50,000/ml and 20 uL/well is added to test plates w/compounds via automation (uFlow, Biotek). Each plate includes negative and positive controls (16 replicates each) to create 0% and 100% virus inhibition standards, respectively. Following the infection with RSV, testing plates are incubated for 4 days in a 37° C. cell culture incubator. After the incubation, a cell viability reagent, Cell TiterGlo (Promega, Madison, Wis.) is added to the assay plates, which are incubated briefly, and a luminescent readout is measured (Envision, Perkin Elmer) in all the assay plates. The RSV-induced cytopathic effect, percentage inhibition, is determined from the levels of remaining cell viability. These numbers are calculated for each tested concentration relative to the 0% and 100% inhibition controls, and the EC50 value for each compound is determined by non-linear regression as a concentration inhibiting the RSV-induced cytopathic effect by 50%. Various potent anti-RSV tool compounds are used as positive controls for antiviral activity.

[1] = Cytotoxicity assay in MT-4 cells; format: cell-based; conditions: human, Cell-Titer Glo
Description: The MT-4 cell line was obtained from the NIH AIDS Research and Reference Reagent Program (Germantown, Md.) and cultured in RPMI-1640 medium (Irvine Scientific, Santa Ana, Calif., Cat #9160) supplemented with 10% FBS, 100 units/mL penicillin, 100 units/mL streptomycin, and 2 mM L-Glutamine. The MT-4 cells were passaged twice per week to maintain cell densities below 0.6×10^6 cells/mL. Complete RPMI-1640 media containing 100× concentrations of 3-fold serially diluted compound, ranging from 26 nM to 530 μM, were stamped in quadruplicate into black 384-well plates. After compound addition, 2×10^3 MT-4 cells were added to each well using a MicroFlo liquid dispenser (BioTek, Winooski, Vt.) and the cells were cultured for 5 days at 37° C. in a 5% CO2 incubator. Following the incubation the cells were allowed to equilibrate to 25° C. and cell viability was determined by adding 25 μL of Cell-Titer Glo viability reagent. The mixture was incubated for 10 minutes at 25° C., and the luminescence signal was quantified on a Victor Luminescence plate reader. The CC50 value is defined as the concentration of compound that reduces cell viability by 50% as determined by the Cell-Titer Glo signal. The data were analyzed using Pipeline Pilot Plate Data Analytics Collection software (Version 7.0, Accelrys, San Diego, Calif.). CC50 values were calculated from a non-linear regression analysis using a 4-parameter sigmoidal dose-response equation: Y=Bottom+(Top−Bottom)/(1+10^[(Log CC50−X)*HillSlope]) where the Top and Bottom were fixed at 100% and 0% cell viability, respectively. CC50 values were calculated as the average±standard deviation of 3 independent experiments.

[2] = Cytotoxicity assay in HEp-2 cells; format: cell-based; conditions: human, uninfected HEp-2 cells, CellTiter Glo
Description: Cytotoxicity of tested compounds is determined in uninfected HEp-2 cells in parallel with the antiviral activity using the cell viability reagent in a similar fashion as described before for other cell types (Cihlar et al., Antimicrob Agents Chemother. 2008, 52(2):655-65.). The same protocol as for the determination of antiviral activity is used for the measurement of compound cytotoxicity except that the cells are not infected with RSV. Instead, an uninfected cell mixture at the same density is added at 20 ul/well to plates containing prediluted compounds, also at 100 nl/sample. Assay plates are then incubated for 4 days followed by a cell viability test using the same CellTiter Glo reagent addition and measurement of luminescent readouts. Untreated cell and cells treated at 2 uM puromycin (Sigma, St. Louis, Mo.) serve as 100% and 0% cell viability control, respectively. The percent of cell viability is calculated for each tested compound concentration relative to the 0% and 100% controls and the CC50 value is determined by non-linear regression as a compound concentration reducing the cell viability by 50%.

[3] = 96 h, HEp-2 cells infected with RSV A2, 4 days, Cell TiterGlo, read-out: EC50
[4] = HEp-2 anti-RSV activity, read-out: EC50 (HEp-2 anti-RSV activity)

| EC50 (RSV strain A2; [3]) [µM] | EC50 (RSV strain A2; [4]) [µM] | Compound | CC50 at 5 days [1] [µM] | CC50 at 4 days [2] [µM] | EC50 (RSV strain A2; HEp-2, 96 h) [µM] |
| --- | --- | --- | --- | --- | --- |
| 2 | < 100 | N#C[C@]1(CO)O[C@@H](c2ccc3c(N)ncnn23)[C@H](F)[C@@H]1O [Example 3, (2R,3R,4R,5S)-5-(4-aminopyrrolo[1,24][1,2,4]triazin-7-yl)-4-fluoro-3-hydroxy-2-(hydroxymethyl)tetrahydrofuran-2-carbonitrile] | > 106 | > 100 | – |
| 30 | – | C[C@]1(CO)O[C@@H](c2ccc3c(N)ncnn23)[C@H](O)[C@@H]1O [Example 4, (2R,3S,4R,5S)-5-(4-aminopyrrolo[1,2-f][1,2,4]triazin-7-yl)-2-(hydroxymethyl)-2-methyltetrahydrofuran-3,4-diol] | > 53 | > 50 | – |
| 2.1 | – | [N-]=[N+]=N[C@]1(CO)O[C@@H](c2ccc3c(N)ncnn23)[C@H](O)[C@@H]1O [Example 5, (2R,3S,4R,5S)-5-(4-aminopyrrolo[1,2-f][1,2,4]triazin-7-yl)-2-azido-2-(hydroxymethyl)tetrahydrofuran-3,4-diol] | > 53 | > 50 | – |
| 10.5 | < 100 | C=C[C@]1(CO)O[C@@H](c2ccc3c(N)ncnn23)[C@H](F)[C@@H]1O [Example 13, (2R,3R,4R,5S)-5-(4-aminopyrrolo[1,2-f][1,2,4]triazin-7-yl)-4-fluoro-2-(hydroxymethyl)-2-vinyltetrahydrofuran-3-ol] | > 106 | > 100 | – |
| 40 | < 100 | CC[C@]1(CO)O[C@@H](c2ccc3c(N)ncnn23)[C@H](F)[C@@H]1O [Example 14, (2R,3R,4R,5S)-5-(4-aminopyrrolo[1,24][1,2,4]triazin-7-yl)-2-ethyl-4-fluoro-2-(hydroxymethyl)tetrahydrofuran-3-ol] | > 106 | > 100 | – |
| 0.4 | < 100 | [N-]=[N+]=N[C@]1(CO)O[C@@H](c2ccc3c(N)ncnn23)[C@H](F)[C@@H]1O [Example 19, (2R,3R,4R,5S)-5-(4-aminopyrrolo[2,1-f][1,2,4]triazin-7-yl)-2-azido-4-fluoro-2-(hydroxymethyl)tetrahydrofuran-3-ol] | 16 | > 44 | – |

The next lines start with the compound.

| Compound | EC50 (RSV strain A2; [3]) [µM] | EC50 (RSV strain A2; [4]) [µM] | CC50 at 5 days [1] [µM] | CC50 at 4 days [2] [µM] | EC50 (RSV strain A2; HEp-2, 96 h) [µM] |
| --- | --- | --- | --- | --- | --- |
| Nc1ncnn2c([C@@H]3O[C@H](CO)[C@@H](O)[C@H]3F)ccc12 [(2R,3R,4R,5S)-5-(4-aminopyrrolo[1,2-f][1,2,4]triazin-7-yl)-4-fluoro-2-(hydroxymethyl)tetrahydrofuran-3-ol, reference compound] | > 100 | – | 30 | – | – |
| Nc1ncnn2c([C@@H]3O[C@H](CO)[C@@H](O)[C@H]3O)ccc12 [(2S,3R,4S,5R)-2-(4-aminopyrrolo[1,2-t][1,2,4]triazin-7-yl)-5-(hydroxymethyl)tetrahydrofuran-3,4-diol, reference compound] | – | – | 0.007 | – | – |
| C#C[C@]1(CO)O[C@@H](c2ccc3c(N)ncnn23)[C@H](F)[C@@H]1O [Example 2, (2R,3R,4R,5S)-5-(4-aminopyrrolo[1,2-f][1,2,4]triazin-7-yl)-2-ethynyl-4-fluoro-2-(hydroxymethyl)tetrahydrofuran-3-ol] | 9.6 | < 100 | > 106 | > 100 | – |
| CC(C)(C)C(=O)SCCOP(=O)(OCCSC(=O)C(C)(C)C)OC[C@@]1(C#N)O[C@@H](c2ccc3c(N)ncnn23)[C@H](F)[C@@H]1O [Example 11, S,S′-2,2′-((((2R,3R,4R,5S)-5-(4-aminopyrrolo[1,2-f][1,2,4]triazin-7-yl)-2-cyano-4-fluoro-3-hydroxytetrahydrofuran-2-yl)methoxy)phosphoryl)bis(oxy)bis(ethane-2,1-diyl)bis(2,2-dimethylpropanethioate)] | – | – | 19.7 | 42 | 1.2 |
| CCC(CC)COC(=O)[C@H](C)NP(=O)(OC[C@@]1(C#N)O[C@@H](c2ccc3c(N)ncnn23)C(F)C1O)Oc1ccccc1 (stereo partly drawn) [Example 12, (2S)-2-ethylbutyl 2-((((2R,3R,4R,5S)-5-(4-aminopyrrolo[1,2-f][1,2,4]triazin-7-yl)-2-cyano-4-fluoro-3-hydroxytetrahydrofuran-2-yl)methoxy)(phenoxy)phosphorylamino)propanoate] | – | – | 27 | > 50 | 3 |
| C=C[C@]1(COP(=O)(OCCSC(=O)C(C)(C)C)OCCSC(=O)C(C)(C)C)O[C@@H](c2ccc3c(N)ncnn23)[C@H](F)[C@@H]1O [Example 15, S,S′-2,2′-((((2R,3R,4R,5S)-5-(4-aminopyrrolo[1,2-f][1,2,4]triazin-7-yl)-4-fluoro-3-hydroxy-2-vinyltetrahydrofuran-2-yl)methoxy)phosphoryl)bis(oxy)bis(ethane-2,1-diyl)bis(2,2-dimethylpropanethioate)] | – | – | 7.9 | 35 | 1.6 |
| CCC(CC)COC(=O)[C@H](C)NP(=O)(OC[C@@]1(N=[N+]=[N-])O[C@@H](c2ccc3c(N)ncnn23)[C@H](O)[C@@H]1O)Oc1ccccc1 (stereo partly drawn) [Example 16, (2S)-2-ethylbutyl 2-(((((2R,3S,4R,5S)-5-(4-aminopyrrolo[2,1-f][1,2,4]triazin-7-yl)-2-azido-3,4-dihydroxytetrahydrofuran-2-yl)methoxy)(phenoxy)phosphoryl)amino)propanoate] | – | – | 25 | 18 | 0.3 |
| C=C[C@]1(CO)O[C@@H](c2ccc3c(N)ncnn23)[C@H](O)[C@@H]1O [Example 20, (2R,3S,4R,5S)-5-(4-aminopyrrolo[2,1-f][1,2,4]triazin-7-yl)-2-(hydroxymethyl)-2-vinyltetrahydrofuran-3,4-diol] | > 50 | – | > 53 | > 50 | – |
| [N-]=[N+]=N[C@]1(CO)O[C@@H](c2cc(F)c3c(N)ncnn23)[C@H](F)[C@@H]1O [Example 21, (2R,3R,4R,5S)-5-(4-amino-5-fluoropyrrolo[2,1-f][1,2,4]triazin-7-yl)-2-azido-4-fluoro-2-(hydroxymethyl)tetrahydrofuran-3-ol] | 50 | < 100 | 15 | 36 | – |
| N#C[C@]1(CO)O[C@@H](c2cc(F)c3c(N)ncnn23)[C@H](F)[C@@H]1O [Example 23, (2R,3R,4R,5S)-5-(4-amino-5-fluoropyrrolo[2,1-f][1,2,4]triazin-7-yl)-4-fluoro-3-hydroxy-2-(hydroxymethyl)tetrahydrofuran-2-carbonitrile] | 23.5 | < 100 | 21 | 72 | – |
